Laboratory results as given in PubChem BioAssay AID2060887 (Molecular Pharmacology Branch, DTP, NCI, 2025).
Values belong to the compound of their own block, whether it stands above or below them.

Tested on: 782815-120-R-J1-PDC complex spheroid viability
Assay: Anticancer human tumor 782815-120-R-J1-PDC patient-derived colon adenocarcinoma cell line growth inhibition [RAS]
Conditions: for IC50: curve of first compound; for viability, T/C: stronger effect = lower value
How it was run: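 Agents were tested in combination matrices in half-log decrements from a top concentration at or near clinical Cmax (10 microM if undetermined). Targets were multi-cell spheroids of tumour lines plus HUVEC and MSC stromal cells.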

[1] = second compound 0.000949 µM, first compound 0.0316 µM
[2] = second compound 0.000949 µM, first compound 0.1 µM
[3] = second compound 0.000949 µM, first compound 0.316 µM
[4] = second compound 0.000949 µM, first compound 1 µM
[5] = second compound 0.000949 µM, first compound 3.16 µM
[6] = second compound 0.000949 µM, first compound 10 µM
[7] = second compound 0.003 µM, first compound 0.0316 µM
[8] = second compound 0.003 µM, first compound 0.1 µM
[9] = second compound 0.003 µM, first compound 0.316 µM
[10] = second compound 0.003 µM, first compound 1 µM
[11] = second compound 0.003 µM, first compound 3.16 µM
[12] = second compound 0.003 µM, first compound 10 µM
[13] = second compound 0.00949 µM, first compound 0.0316 µM
[14] = second compound 0.00949 µM, first compound 0.1 µM
[15] = second compound 0.00949 µM, first compound 0.316 µM
[16] = second compound 0.00949 µM, first compound 1 µM
[17] = second compound 0.00949 µM, first compound 3.16 µM
[18] = second compound 0.00949 µM, first compound 10 µM
[19] = second compound 0.03 µM, first compound 0.0316 µM
[20] = second compound 0.03 µM, first compound 0.1 µM
[21] = second compound 0.03 µM, first compound 0.316 µM
[22] = second compound 0.03 µM, first compound 1 µM
[23] = second compound 0.03 µM, first compound 3.16 µM
[24] = second compound 0.03 µM, first compound 10 µM
[25] = second compound 0.0949 µM, first compound 0.0316 µM
[26] = second compound 0.0949 µM, first compound 0.1 µM
[27] = second compound 0.0949 µM, first compound 0.316 µM
[28] = second compound 0.0949 µM, first compound 1 µM
[29] = second compound 0.0949 µM, first compound 3.16 µM
[30] = second compound 0.0949 µM, first compound 10 µM
[31] = second compound 0.3 µM, first compound 0.0316 µM
[32] = second compound 0.3 µM, first compound 0.1 µM
[33] = second compound 0.3 µM, first compound 0.316 µM
[34] = second compound 0.3 µM, first compound 1 µM
[35] = second compound 0.3 µM, first compound 3.16 µM
[36] = second compound 0.3 µM, first compound 10 µM
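Note: spheroids exposed to compounds for 7 days before reading.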
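Throughout, for viability, T/C: 100% = DMSO vehicle control viability.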

IC50 (second compound 0.000949 µM): > 10 µM
IC50 (second compound 0.003 µM): > 10 µM
IC50 (second compound 0.00949 µM): < 0.0316 µM
IC50 (second compound 0.03 µM): < 0.0316 µM
IC50 (second compound 0.0949 µM): < 0.0316 µM
IC50 (second compound 0.3 µM): < 0.0316 µM
Compound: CC(C)NCC(C(=O)N1CCN(c2ncnc3c2C(C)CC3O)CC1)c1ccc(Cl)cc1 (stereo not drawn) + CCn1c(-c2cc(N3CCN(C)CC3)cnc2C(C)OC)c2c3cc(ccc31)-c1csc(n1)CC(NC(=O)C1CC1C)C(=O)N1CCCC(N1)C(=O)OCC(C)(C)C2
viability, T/C [1]: 79.6%
viability, T/C [2]: 77.7%
viability, T/C [3]: 74.5%
viability, T/C [4]: 71.6%
viability, T/C [5]: 77.4%
viability, T/C [6]: 87.9%
viability, T/C [7]: 57.2%
viability, T/C [8]: 54.8%
viability, T/C [9]: 61.9%
viability, T/C [10]: 50.3%
viability, T/C [11]: 57.2%
viability, T/C [12]: 51.3%
viability, T/C [13]: 34.2%
viability, T/C [14]: 33.1%
viability, T/C [15]: 35.3%
viability, T/C [16]: 30.1%
viability, T/C [17]: 30%
viability, T/C [18]: 26.4%
viability, T/C [19]: 20.2%
viability, T/C [20]: 19.9%
viability, T/C [21]: 19.1%
viability, T/C [22]: 17.2%
viability, T/C [23]: 16.5%
viability, T/C [24]: 16.1%
viability, T/C [25]: 17.2%
viability, T/C [26]: 17.7%
viability, T/C [27]: 18.8%
viability, T/C [28]: 15%
viability, T/C [29]: 16.1%
viability, T/C [30]: 11%
viability, T/C [31]: 18.3%
viability, T/C [32]: 17.4%
viability, T/C [33]: 15.3%
viability, T/C [34]: 14.8%
viability, T/C [35]: 14.3%
viability, T/C [36]: 8.75%

IC50 (second compound 0.000949 µM): > 0.1 µM
IC50 (second compound 0.003 µM): 0.0326 µM
IC50 (second compound 0.00949 µM): < 0.000316 µM
IC50 (second compound 0.03 µM): < 0.000316 µM
IC50 (second compound 0.0949 µM): < 0.000316 µM
IC50 (second compound 0.3 µM): < 0.000316 µM
Compound: CC(C)n1nc(-c2ccc3oc(N)nc3c2)c2c(N)ncnc21 + CCn1c(-c2cc(N3CCN(C)CC3)cnc2C(C)OC)c2c3cc(ccc31)-c1csc(n1)CC(NC(=O)C1CC1C)C(=O)N1CCCC(N1)C(=O)OCC(C)(C)C2
viability, T/C (second compound 0.000949 µM, first compound 0.000316 µM): 79.2%
viability, T/C (second compound 0.000949 µM, first compound 0.001 µM): 71.7%
viability, T/C (second compound 0.000949 µM, first compound 0.00316 µM): 70.3%
viability, T/C (second compound 0.000949 µM, first compound 0.01 µM): 71.4%
viability, T/C [1]: 65.5%
viability, T/C [2]: 65.9%
viability, T/C (second compound 0.003 µM, first compound 0.000316 µM): 64.2%
viability, T/C (second compound 0.003 µM, first compound 0.001 µM): 57.5%
viability, T/C (second compound 0.003 µM, first compound 0.00316 µM): 59.6%
viability, T/C (second compound 0.003 µM, first compound 0.01 µM): 52.9%
viability, T/C [7]: 53.2%
viability, T/C [8]: 40.9%
viability, T/C (second compound 0.00949 µM, first compound 0.000316 µM): 36.3%
viability, T/C (second compound 0.00949 µM, first compound 0.001 µM): 34.2%
viability, T/C (second compound 0.00949 µM, first compound 0.00316 µM): 35.9%
viability, T/C (second compound 0.00949 µM, first compound 0.01 µM): 29%
viability, T/C [13]: 27.7%
viability, T/C [14]: 23.7%
viability, T/C (second compound 0.03 µM, first compound 0.000316 µM): 19.4%
viability, T/C (second compound 0.03 µM, first compound 0.001 µM): 19.6%
viability, T/C (second compound 0.03 µM, first compound 0.00316 µM): 20.6%
viability, T/C (second compound 0.03 µM, first compound 0.01 µM): 17%
viability, T/C [19]: 14.6%
viability, T/C [20]: 10.7%
viability, T/C (second compound 0.0949 µM, first compound 0.000316 µM): 15.4%
viability, T/C (second compound 0.0949 µM, first compound 0.001 µM): 16.2%
viability, T/C (second compound 0.0949 µM, first compound 0.00316 µM): 14.8%
viability, T/C (second compound 0.0949 µM, first compound 0.01 µM): 14.2%
viability, T/C [25]: 9.96%
viability, T/C [26]: 6.66%
viability, T/C (second compound 0.3 µM, first compound 0.000316 µM): 15.2%
viability, T/C (second compound 0.3 µM, first compound 0.001 µM): 15.5%
viability, T/C (second compound 0.3 µM, first compound 0.00316 µM): 12.6%
viability, T/C (second compound 0.3 µM, first compound 0.01 µM): 12.4%
viability, T/C [31]: 8.16%
viability, T/C [32]: 4.66%

IC50 (second compound 0.000949 µM): > 10 µM
IC50 (second compound 0.003 µM): 0.195 µM
IC50 (second compound 0.00949 µM): < 0.0316 µM
IC50 (second compound 0.03 µM): < 0.0316 µM
IC50 (second compound 0.0949 µM): < 0.0316 µM
IC50 (second compound 0.3 µM): < 0.0316 µM
Compound: CC(Nc1ccc2c(c1)OCCn1cc(N3C(=O)OCC3C(F)F)nc1-2)C(N)=O (stereo not drawn) + CCn1c(-c2cc(N3CCN(C)CC3)cnc2C(C)OC)c2c3cc(ccc31)-c1csc(n1)CC(NC(=O)C1CC1C)C(=O)N1CCCC(N1)C(=O)OCC(C)(C)C2
viability, T/C [1]: 75.1%
viability, T/C [2]: 73.5%
viability, T/C [3]: 76%
viability, T/C [4]: 62.9%
viability, T/C [5]: 73.8%
viability, T/C [6]: 78.5%
viability, T/C [7]: 53.1%
viability, T/C [8]: 54.9%
viability, T/C [9]: 46.4%
viability, T/C [10]: 47.5%
viability, T/C [11]: 45.1%
viability, T/C [12]: 51.8%
viability, T/C [13]: 29.8%
viability, T/C [14]: 31.2%
viability, T/C [15]: 27.9%
viability, T/C [16]: 24.9%
viability, T/C [17]: 24.1%
viability, T/C [18]: 25.3%
viability, T/C [19]: 19.8%
viability, T/C [20]: 18.4%
viability, T/C [21]: 15%
viability, T/C [22]: 15.6%
viability, T/C [23]: 16.2%
viability, T/C [24]: 13.1%
viability, T/C [25]: 15.4%
viability, T/C [26]: 15.1%
viability, T/C [27]: 11.4%
viability, T/C [28]: 11.5%
viability, T/C [29]: 13.5%
viability, T/C [30]: 11.9%
viability, T/C [31]: 15.6%
viability, T/C [32]: 13%
viability, T/C [33]: 10.1%
viability, T/C [34]: 11.8%
viability, T/C [35]: 11.9%
viability, T/C [36]: 11.8%

IC50 (second compound 0.000949 µM): > 10 µM
IC50 (second compound 0.003 µM): > 10 µM
IC50 (second compound 0.00949 µM): < 0.0316 µM
IC50 (second compound 0.03 µM): < 0.0316 µM
IC50 (second compound 0.0949 µM): < 0.0316 µM
IC50 (second compound 0.3 µM): < 0.0316 µM
Compound: C[C@@H](NC(=O)c1ncnc(N)c1Cl)c1ncc(C(=O)Nc2cc(C(F)(F)F)c(Cl)cn2)s1 + CCn1c(-c2cc(N3CCN(C)CC3)cnc2C(C)OC)c2c3cc(ccc31)-c1csc(n1)CC(NC(=O)C1CC1C)C(=O)N1CCCC(N1)C(=O)OCC(C)(C)C2
viability, T/C [1]: 82.2%
viability, T/C [2]: 95.5%
viability, T/C [3]: 76.9%
viability, T/C [4]: 73.4%
viability, T/C [5]: 58.8%
viability, T/C [6]: 66.8%
viability, T/C [7]: 74.1%
viability, T/C [8]: 69.4%
viability, T/C [9]: 62.9%
viability, T/C [10]: 60.5%
viability, T/C [11]: 55.1%
viability, T/C [12]: 54.7%
viability, T/C [13]: 47.9%
viability, T/C [14]: 50.3%
viability, T/C [15]: 47.7%
viability, T/C [16]: 46.6%
viability, T/C [17]: 47%
viability, T/C [18]: 44.6%
viability, T/C [19]: 25.8%
viability, T/C [20]: 33%
viability, T/C [21]: 32%
viability, T/C [22]: 31.9%
viability, T/C [23]: 37.6%
viability, T/C [24]: 35.9%
viability, T/C [25]: 19.7%
viability, T/C [26]: 23.8%
viability, T/C [27]: 25.3%
viability, T/C [28]: 27.1%
viability, T/C [29]: 30.8%
viability, T/C [30]: 27.6%
viability, T/C [31]: 18.6%
viability, T/C [32]: 20.7%
viability, T/C [33]: 23.1%
viability, T/C [34]: 21.9%
viability, T/C [35]: 26.4%
viability, T/C [36]: 27.9%
